Assay results: patent publication US5817651A, “3-arylcarbonyl-1-(C-attached-N-heteryl)-1H-indoles” (Sanofi, priority 1997, dated 1998)
Counter-ions that a name gives are not always drawn. Like-named read-outs stand apart in the source and are kept apart here.

Key:
Type in all cases: in vivo
[1] = test system: acetylcholine-induced abdominal constriction; experiment: acetylcholine-induced abdominal constriction test (ACH); conditions: mice; for ED50: Mus musculus
Description: J. Pharmacol. Chemotherap. 32, 295 (1968); a modification of the anti-bradykinin test, which is also a primary analgesic screening procedure, described by Berkowitz et al., J. Pharmacol. Exptl. Therap. 177, 500-508 (1971), Blane et al., J. Pharm. Pharmacol. 19, 367-373 (1967), Botha et al., Eur. J. Pharmacol. 6, 312-321 (1969) and Deffenu et al., J. Pharm. Pharmacol. 18, 135 (1966); and the Randall-Selitto analgesic test described by Randall and Selitto, Arch. Int. Pharmacodyn., 111, 409-419 (1957).
Data in the developing adjuvant arthritis (AA) and plasma fibronectin (FN) assays are expressed as percent inhibition, i.e. inhibition of non-injected paw inflammation (NIP) and injected paw (RPV) and lowering of plasma fibronectin, the asterisks * and ** indicating statistical significance at the p<0.01 and p<0.05 levels, respectively. […] Non-statistically significant results are recorded as "------ ". In the acetylcholine-induced abdominal constriction test, the test compounds were administered either as suspensions in gum tragacanth (GT) or as aqueous solutions prepared by addition of just sufficient dilute aqueous methanesulfonic acid (MS) or dilute aqueous lactic acid (LA) to dissolve the compound. The compounds are identified by the example number above where their preparations are described. All data in the anti-bradykinin, rat writhing and Randall-Selitto tests were obtained on oral administration.

[2] = test system: acetic acid-induced writhing; experiment: acetic acid-induced writhing assay in the rat (RW); conditions: for ED50: Rattus norvegicus, po; for RW percent inhibition at dose 30: dose level 30
Experimental: (§1) Data in the developing adjuvant arthritis (AA) and plasma fibronectin (FN) assays are expressed as percent inhibition, i.e. inhibition of non-injected paw inflammation (NIP) and injected paw (RPV) and lowering of plasma fibronectin, the asterisks * and ** indicating statistical significance at the p<0.01 and p<0.05 levels, respectively. Compounds are considered active at p<0.05 level. Non-statistically significant results are recorded as "------ ". In the acetylcholine-induced abdominal constriction test, the test compounds were administered either as suspensions in gum tragacanth (GT) or as aqueous solutions prepared by addition of just sufficient dilute aqueous methanesulfonic acid (MS) or dilute aqueous lactic acid (LA) to dissolve the compound. The compounds are identified by the example number above where their preparations are described. All data in the anti-bradykinin, rat writhing and Randall-Selitto tests were obtained on oral administration.

[3] = test system: adjuvant induced arthritis; experiment: developing adjuvant arthritis (AA) assay; conditions: arthritic rats; printed * = p<0.01, ** = p<0.05
Experimental: Antirheumatic and anti-inflammatory activities of the compounds of the invention were determined using the developing adjuvant arthritis assay in rats and the plasma fibronectin assay in arthritic rats. The developing adjuvant arthritis assay was used in conjunction with the plasma fibronectin assay as a primary screening method in the evaluation of compounds for potential use as disease modifying anti-rheumatic drugs. The procedure used to induce arthritis in rats is a modification of the methods published by Pearson, J. Chron. Dis. 16, 863-874 (1973) and by Glenn et al., Amer. J. Vet. Res. 1180-1193 (1965). Adjuvant induced arthritis bears many of the traits of rheumatoid arthritis. It is a chronic, progressive, deforming arthritis of the peripheral joints, with a primary mononuclear cell response consisting of bone and joint space invasion by pannus. In order to detect disease modifying anti-rheumatic drug activity, drug treatment is started before the disease has become irrevocably established. Since such drugs are not designed to be administered prophylactically, drug treatment of adjuvant arthritis is initiated at a time when the disease is developing but is not yet irreversible. Animals develop significant systemic arthritic disease which can be measured by swelling of the non-injected rear paw (NIP) 15 to 20 days following an initial injection on day 1 of complete Freund's adjuvant into the right hindfoot paw.
as §1

[4] = Table 9, Examples, no route marked in the cell, read-out: ACH ED50
[5] = iv, Table 9, iv, read-out: ACH ED50 (iv)
[6] = Table 9, Examples, no route marked in the cell

## COc1ccc(C(=O)c2c(C)n(C3CCCN(C)C3)c3ccccc23)cc1 (centres unmarked) [2AG(a)]
[1]; Table 9, Examples, no route marked in the cell, listed as 2AG(d)
  ACH ED50: 22 mg/kg
[2]; oral administration
  ED50: 9 mg/kg

## COc1ccc(C(=O)c2c(C)n(CC3CN(C)CCO3)c3ccccc23)cc1 (centres unmarked) [Example 1A, 1-[(4-methyl-2-morpholinyl)methyl]-2-methyl-3-(4-methoxybenzoyl)-1H-indolehydrochloride]
[1]; [4]
  ED50: 9 mg/kg
[2]; oral administration
  ED50: 3 mg/kg

## Cc1c(C(=O)c2ccccc2)c2ccccc2n1CC1CN(C)CCO1 (centres unmarked) [Example 1C]
[1]; [4]
  ED50: 21 mg/kg
[2]; oral administration
  ED50: 10 mg/kg

## Cc1c(C(=O)c2ccccc2F)c2ccccc2n1CC1CN(C)CCO1 (centres unmarked) [Example 1F]
[1]; [4]
  ED50: 22 mg/kg
[2]; oral administration
  ED50: 26 mg/kg

## COc1ccc(C(=O)c2cn(CC3CCCN(C)C3)c3ccccc23)cc1 (centres unmarked) [Example 1I]
[1]; [5]
  ED50: 5 mg/kg
[1]; Table 9, aqueous solution with dilute methanesulfonic acid (MS)
  ACH ED50 (MS): 38 mg/kg
[2]; oral administration
  ED50: 32 mg/kg
[3]
  NIP: percent inhibition of non-injected paw inflammation: 61%
  RPV: percent inhibition of injected paw: 19%

## Cc1c(C(=O)c2ccccc2F)c2ccccc2n1CC1CCCN(C)C1 (centres unmarked) [Example 1J]
[1]; [4]
  ED50: 32 mg/kg
[2]; oral administration
  ED50: 45 mg/kg

## Cc1c(C(=O)c2ccccc2)c2ccccc2n1CC1CCCN(C)C1 (centres unmarked) [Example 1K]
[1]; [4]
  ED50: 33 mg/kg
[2]; oral administration
  ED50: 40 mg/kg
[3]
  NIP: percent inhibition of non-injected paw inflammation: 76%
  RPV: percent inhibition of injected paw: 50%

## CCN1CCCC(n2c(C)c(C(=O)c3ccc(OC)cc3)c3ccccc32)C1 (centres unmarked) [Example 2AE]
[1]; [4]
  ED50: 26 mg/kg
[2]; oral
  RW percent inhibition at dose 30: 15%

## COc1ccc(C(=O)c2c(C)n(CC3=CCCN(C)C3)c3ccccc23)cc1 [Example 2AF]
[1]; [4]
  ED50: 11 mg/kg
[2]; oral administration
  ED50: 15 mg/kg
[3]
  NIP: percent inhibition of non-injected paw inflammation: 93%
  RPV: percent inhibition of injected paw: 78%

## COc1ccc(C(=O)c2c(C)n(CC3CCN(C)C3)c3ccccc23)cc1 (centres unmarked) [Example 2AI]
[1]; [4]
  ED50: 11 mg/kg
[1]; [6]
  ACH ED50: 13 mg/kg
[2]; oral administration
  ED50: 4 mg/kg

## Cc1c(C(=O)c2ccccc2F)c2ccccc2n1CC1CCCN1C (centres unmarked) [Example 2AJ]
[1]; [4]
  ED50: 72 mg/kg
[2]; oral administration
  ED50: 6 mg/kg
[3]
  NIP: percent inhibition of non-injected paw inflammation: 31%

## COc1ccc(C(=O)c2c(C)n(CCC3CCCCN3C)c3ccccc23)cc1 (centres unmarked) [Example 2G]
[1]; [4]
  ED50: 26 mg/kg
[2]; oral administration
  ED50: 3 mg/kg
[3]
  NIP: percent inhibition of non-injected paw inflammation: 93%
  RPV: percent inhibition of injected paw: 73%

## COc1ccc(C(=O)c2c(C)n(CC3CCCN(C)C3)c3ccc(F)cc23)cc1 (centres unmarked) [Example 2I]
[1]; [4]
  ED50: 40 mg/kg
[2]; oral administration
  ED50: 5 mg/kg
[3]
  NIP: percent inhibition of non-injected paw inflammation: 70%
  RPV: percent inhibition of injected paw: 51%

## CCc1c(C(=O)c2ccc(OC)cc2)c2ccccc2n1CC1CCCN(C)C1 (centres unmarked) [Example 2K]
[1]; [4]
  ED50: 16 mg/kg
[1]; [5]
  ED50: 11 mg/kg
[1]; sc, Table 9, sc, read-out: ACH ED50 (sc)
  ED50: 10 mg/kg
[2]; oral administration
  ED50: 23 mg/kg
[3]
  NIP: percent inhibition of non-injected paw inflammation: 68%
  RPV: percent inhibition of injected paw: 54%

## CCN1CCCC(Cn2c(C)c(C(=O)c3ccc(OC)cc3)c3ccccc32)C1 (centres unmarked) [Example 2L]
[1]; [4]
  ED50: 11 mg/kg
[2]; oral administration
  ED50: 2 mg/kg

## CSc1ccc(C(=O)c2c(C)n(CC3CCCN(C)C3)c3ccccc23)cc1 (centres unmarked) [Example 2O]
[1]; [4]
  ED50: 8 mg/kg
[2]; oral administration
  ED50: 5 mg/kg
[3]
  NIP: percent inhibition of non-injected paw inflammation: 65%
  RPV: percent inhibition of injected paw: 44%

## COc1ccc(C(=O)c2c(C)n(CC3CN(C)CCN3C)c3ccccc23)cc1 (centres unmarked) [Example 2V]
[1]; [4]
  ED50: 20 mg/kg
[2]; oral administration
  ED50: 15 mg/kg

## COc1ccc(C(=O)c2c(C)n(C3CCCCN(C)C3)c3ccccc23)cc1 (centres unmarked) [Example 2X]
[1]; [4]
  ED50: 29 mg/kg
[2]; oral
  RW percent inhibition at dose 30: 54%
[2]; oral, dose level 100
  RW percent inhibition at dose 100: 82%
[3]
  NIP: percent inhibition of non-injected paw inflammation: 43%

## COc1ccc(C(=O)c2c(C)n(CC3CSCCN3C)c3ccccc23)cc1 (centres unmarked) [Example 3A, 1-[(4-methyl-3-thiomorpholinyl)methyl]-2-methyl-3-(4-methoxybenzoyl)-1H-indole]
[1]; [4]
  ED50: 33 mg/kg
[2]; oral administration
  ED50: 13 mg/kg

## COc1ccc(C(=O)c2c(C)n(CC3CCCNC3)c3ccccc23)cc1 (centres unmarked) [Example 4B]
[1]; [4]
  ED50: 15 mg/kg
[2]; oral administration
  ED50: 10 mg/kg
[3]
  NIP: percent inhibition of non-injected paw inflammation: 91%
  RPV: percent inhibition of injected paw: 79%

## COc1ccc(C(=O)c2c(C)n(CC3CNCCN3)c3ccccc23)cc1 (centres unmarked) [Example 4C]
[1]; [4]
  ED50: 22 mg/kg
[2]; oral administration
  ED50: 20 mg/kg

## CC(C1CCCN(C)C1)n1cc(C(=O)c2ccccc2F)c2ccccc21 (centres unmarked) [Example 4F]
[1]; [4]
  ED50: 24 mg/kg
[2]; oral administration
  ED50: 6 mg/kg
[3]
  NIP: percent inhibition of non-injected paw inflammation: 45%
  RPV: percent inhibition of injected paw: 27%

## CC(C1CCCN(C)C1)n1cc(C(=O)c2ccccc2F)c2ccccc21 (centres unmarked) [Example 4G]
[1]; [6]
  ACH ED50: 19 mg/kg
[2]; oral administration
  RW ED50: 7 mg/kg

## CC(C1CCCNC1)n1cc(C(=O)c2ccccc2F)c2ccccc21 (centres unmarked) [Example 4H]
[1]; [6]
  ACH ED50: 25 mg/kg
[2]; oral administration
  ED50: 4 mg/kg

## COc1ccc(C(=O)c2c(C)n(CC3(O)CCN(C)CC3)c3ccccc23)cc1 [Example 5, 2-methyl-3-(4-methoxybenzoyl)-1-[(1-methyl-4-hydroxy-4-piperidinyl)methyl]-1H-indole]
[1]; [4]
  ED50: 23 mg/kg
[2]; oral administration
  ED50: 9.1 mg/kg

## Cc1c(C(=O)c2ccc([S+](C)[O-])cc2)c2ccccc2n1CC1CCCN(C)C1.Cl (centres unmarked) [Example 6A, 1-[(1-methyl-3-piperidinyl)methyl]-2-methyl-3-(4-methylsulfinylbenzoyl)-1H-indole hydrochloride]
[1]; [4]
  ED50: 9 mg/kg
[2]; oral administration
  ED50: 5 mg/kg
[3]
  NIP: percent inhibition of non-injected paw inflammation: 93%
  RPV: percent inhibition of injected paw: 81%

## COc1ccc(C(=O)c2c(C)n(CC3CCCN3)c3ccccc23)cc1.Cl (centres unmarked) [Example 8A, 2-methyl-3-(4-methoxybenzoyl)-1-[(2-pyrrolidinyl)methyl]-1H-indole hydrochloride]
[1]; [4]
  ED50: 41 mg/kg
[2]; oral administration
  ED50: 25 mg/kg

## Cc1c(C(=O)c2ccc(N)cc2)c2ccccc2n1CC1CCCN(C)C1 (centres unmarked) [Example 9, 2-methyl-3-(4-aminobenzoyl)-1-[(1-methyl-3-piperidinyl)methyl]-1H-indole hydrochloride hemihydrate]
[1]; [4]
  ED50: 12 mg/kg
[2]; oral administration
  ED50: 9 mg/kg
